Measurements reported in patent US8071376B2, “Production of oligodendrocytes from placenta-derived stem cells” (Anthrogenesis Corporation, priority 2005, dated 2011).

Columns and labels:
OPCs [1] = settings: cells cultured 72 hrs with 1 μM staurosporine; background 10,000 cpm; Ebner 2000; cited from earlier work
[2] = tested on: oligodendrocyte progenitors; assay: Quantitative 3H-thymidine incorporation proliferation assay; assay type: cell-based; settings: recombinant growth factor; background 500-1000 cpm without growth factor
Procedure: Proliferation assay: The ability of oligodendrocyte progenitors to generate a mitogenic response to specific ligands is measured in a quantitative ^3H-thymidine incorporation assay. Cells are exposed to growth factors, in a dose range that brackets the maximal response to FGF and PDGF, in order to determine the half-maximal response. Responses range from a background of 500-1000 cpm (no growth factor) to 10,000 cpm (recombinant PDGF-AA), and the assay is sufficiently sensitive to accurately detect partial mitogenic responses. All cell proliferation assays are optionally performed at least three independent times. For qualitative assays, cells are exposed to mitogens with 50 μM BrdU (Sigma) present for the final 4 hrs, and DNA synthesis is monitored by dual immunofluorescence for BrdU (Osterhout et al., J. Neurosci. 17:9122-9132 (1997)) and a second lineage marker.
Proliferation assays are performed on cells that have been removed from mitogens for 24 hrs prior to exposure to recombinant growth factors to reduce background levels of DNA synthesis. […] Nucleic acid is recovered using an automatic harvester (Brandel) and the incorporated radioactivity measured by scintillation counting. […]

OPCs [3] = settings: background migration 1,000 cells/mm^2; Armstrong et al. 1990; cited from earlier work

Row | Compound | 32P incorporation into 3'-ends of DNA (OPCs [1]) | mitogenic response, 3H-thymidine incorporation [2] | chemotaxis, cells migrated (OPCs [3])
1 | CN[C@@H]1C[C@H]2O[C@@](C)([C@@H]1OC)n1c3ccccc3c3c4c(c5c6ccccc6n2c5c31)C(=O)NC4 [staurosporine] | 100,000 cpm | – | –
2 | PDGF-AA: recombinant (human) polypeptide growth factor, oligodendrocyte progenitor cell mitogen | – | 10,000 cpm | 4,000 cells/mm^2
